Source: ChEMBL document CHEMBL4138296, “Nonacidic Chemotype Possessing N-Acylated Piperidine Moiety as Potent Farnesoid X Receptor (FXR) Antagonists” (ACS Med Chem Lett, 2018)
Calls of active or inactive are those of the source. The calls are words filed in the database; no cut-off is given here.

Columns and labels:
Hep 3B2 = assay: Cytotoxicity against human Hep3B cells assessed as reduction in cell viability by MTT assay; type: functional, cell-based
Bile acid receptor [1] = target: T1, Bile acid receptor (Homo sapiens, UniProt Q96RI1); assay: Antagonist activity at human FXR expressed in Hep3B cells assessed as inhibition of CDCA-induced FXR response element driven luciferase activity after 24 hrs; type: cell-based
T1 sequence (Q96RI1 whole entry): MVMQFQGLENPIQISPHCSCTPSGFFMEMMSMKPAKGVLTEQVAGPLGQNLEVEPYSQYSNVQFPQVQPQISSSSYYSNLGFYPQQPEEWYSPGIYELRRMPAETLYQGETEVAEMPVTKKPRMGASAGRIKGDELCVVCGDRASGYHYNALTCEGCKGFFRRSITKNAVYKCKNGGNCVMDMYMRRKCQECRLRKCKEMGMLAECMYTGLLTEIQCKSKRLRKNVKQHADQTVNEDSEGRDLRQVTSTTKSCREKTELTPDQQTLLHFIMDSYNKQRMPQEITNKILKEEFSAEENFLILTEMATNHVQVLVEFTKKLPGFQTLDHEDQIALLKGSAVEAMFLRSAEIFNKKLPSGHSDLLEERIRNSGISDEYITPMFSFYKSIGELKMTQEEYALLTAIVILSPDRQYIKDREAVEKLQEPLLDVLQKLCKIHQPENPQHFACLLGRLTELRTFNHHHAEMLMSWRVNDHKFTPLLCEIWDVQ

Bile acid receptor [2] = target: T1, Bile acid receptor; assay: Antagonist activity at GST-tagged FXR LBD (unknown origin) assessed as inhibition of GW4064-induced fluorecein-labeled SRC2-2 coactivator recruitment by Lanthascreen TR-FRET assay
3T3-L1 [3] = assay: Antiadipogenic activity in mouse 3T3L1 cells assessed as reduction in intracellular lipid droplets at 10 uM after 6 days by Oil Red O staining based assay; type: functional, cell-based
3T3-L1 [4] = assay: Antiadipogenic activity in mouse 3T3L1 cells assessed as inhibition of CDCA-induced intracellular lipid droplets after 6 days by Oil Red O staining based assay; type: functional, cell-based

Row | Compound | IC50 (Hep 3B2) | IC50 (Bile acid receptor [1]) | IC50 (Bile acid receptor [2]) | Activity (3T3-L1 [3]) | inhibition (3T3-L1 [4])
1 | CC(=O)N1CCC(C[C@@H](c2nc3ccccc3n2C)N2C(=O)CN(c3ccc(Oc4ccccc4)cc3)C2=O)CC1 | 32100 nM | 0.002 nM | 740 nM |  | 
2 | CC(=O)N1CCC(C[C@@H](c2nc3cc(F)ccc3n2C)N2C(=O)CN(c3ccc(Oc4ccccc4)cc3)C2=O)CC1 | > 100000 nM | 1 nM | 8300 nM |  | 
3 | Cc1ccc2nc([C@H](CC3CCNCC3)N3C(=O)CN(c4ccc(Oc5ccccc5)cc4)C3=O)n(C)c2c1 | 16700 nM | 4510 nM | 64000 nM |  | 
4 | C/C=C1/C(=O)C[C@H]2[C@@H]3CCC4=CC(=O)CC[C@]4(C)[C@H]3CC[C@]12C |  |  |  | Active | Dose-dependent effect
5 | CC(C)C(=O)N1CCC(C[C@@H](c2nc3cc(F)ccc3n2C)N2C(=O)CN(c3ccc(Oc4ccccc4)cc3)C2=O)CC1 | > 100000 nM | 0.06 nM | 340 nM |  | 
6 | CC(C)C(=O)N1CCC(C[C@@H](c2nc3ccc(Cl)cc3n2C)N2C(=O)CN(c3ccc(Oc4ccccc4)cc3)C2=O)CC1 | > 100000 nM | 0.05 nM | 130 nM |  | 
7 | Cc1ccc2nc([C@H](CC3CCN(CC(C)C)CC3)N3C(=O)CN(c4ccc(Oc5ccccc5)cc4)C3=O)n(C)c2c1 | 6900 nM | 17400 nM | 16400 nM |  | 
8 | CC(=O)N1CCC(C[C@@H](c2nc3ccc(C)cc3n2C)N2C(=O)CN(c3ccc(Oc4ccccc4)cc3)C2=O)CC1 | 17200 nM | 0.2 nM | 1300 nM |  | 
9 | CC(C)C(=O)N1CCC(C[C@@H](c2nc3ccccc3n2C)N2C(=O)CN(c3ccc(Oc4ccccc4)cc3)C2=O)CC1 | > 100000 nM | < 0.001 nM | 38 nM |  | 
10 | Cc1ccc2nc([C@H](CC3CCN(C(=O)C4CCCC4)CC3)N3C(=O)CN(c4ccc(Oc5ccccc5)cc4)C3=O)n(C)c2c1 | > 100000 nM | 0.006 nM | 30 nM |  | 
11 | CC(=O)N1CCC(C[C@@H](c2nc3ccc(Cl)cc3n2C)N2C(=O)CN(c3ccc(Oc4ccccc4)cc3)C2=O)CC1 | > 100000 nM | 0.8 nM | 3500 nM |  | 
